Experiments:
[1] = molecular target: T1, Avi-KRAS G12D (1-169) GppNHp/RAF1 RBD-3xFLAG (52-151) (Homo sapiens, UniProt P01116, G12D); assay: Raf1-KRAS G12D-GppNHP disruption HTRF assay (Biological Example 1); type: binding
T1 construct: Avi-KRAS G12D (1-169)
Procedure, shortened: (§1)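 Compound disruption of KRAS-GppNHp/RAF1 RBD binding read by HTRF after two sequential 1 h room-temperature incubations (protein mix, then detection reagents), shaken at 700 rpm. Buffer Tris pH 7.5 with MgCl2, BSA, Tween and 10% DMSO; results given as percent activity relative to DMSO (100%).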

[2] = molecular target: T2, Avi-KRAS G12R (1-169) GppNHp/RAF1 RBD-3xFLAG (52-151) (Homo sapiens, UniProt P01116, G12R); assay: Raf1-KRAS G12R-GppNHP disruption HTRF assay (Biological Example 1); type: binding
T2 construct: Avi-KRAS G12R (1-169)
Procedure, shortened: as §1

[3] = molecular target: T3, Avi-KRAS G12V (1-169) GppNHp/RAF1 RBD-3xFLAG (52-151) (Homo sapiens, UniProt P01116, G12V); assay: Raf1-KRAS G12V-GppNHP disruption HTRF assay (Biological Example 1); type: binding
T3 construct: Avi-KRAS G12V (1-169)
Procedure, shortened: as §1

[4] = molecular target: T4, Avi-KRAS WT (1-169) GppNHp/RAF1 RBD-3xFLAG (52-151) (Homo sapiens, UniProt P01116); assay: Raf1-KRAS WT-GppNHP disruption HTRF assay (Biological Example 1); type: binding
T4 construct: Avi-KRAS WT (1-169)
Procedure, shortened: as §1

GP2d cells (KRAS G12D) = assay: Cell-based pERK HTRF assay in GP2d cell (Biological Example 2); conditions: GP2d (KRAS G12D) cells, pERK HTRF
Procedure, shortened: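 HTRF read-out of pERK (excitation 320 nm, emission 615 nm) after lysates sat 4–24 h at room temperature with Eu cryptate and d2 antibodies.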

SW620 cells (KRAS G12V) = assay: Cell-based pERK HTRF assay in SW620 cell (Biological Example 4); conditions: pERK HTRF
Procedure, shortened: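 SW620 (KRAS G12V) cells seeded at 3×10^4/well in RPMI, 10% FBS, then treated next day for 4 h with a 9-point half-log series from 1 μM top (0.25% DMSO). Lysates analyzed for pERK by HTRF (Eu cryptate/d2 antibodies, 4–24 h at room temperature), excitation 320 nm, emission 615 nm.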

[5] = Homo sapiens, SW-620, SW620 (KRAS G12V) cells
[6] = KRAS G12D, GppNHp-loaded, class symbols
[7] = KRAS G12R, GppNHp-loaded, class symbols
[8] = KRAS G12V, GppNHp-loaded, class symbols
[9] = KRAS WT, GppNHp-loaded, class symbols
[10] = Homo sapiens, SW-620, SW620 (KRAS G12V) cells, class symbols

T4 sequence (P01116 1-169 isoform P01116-2): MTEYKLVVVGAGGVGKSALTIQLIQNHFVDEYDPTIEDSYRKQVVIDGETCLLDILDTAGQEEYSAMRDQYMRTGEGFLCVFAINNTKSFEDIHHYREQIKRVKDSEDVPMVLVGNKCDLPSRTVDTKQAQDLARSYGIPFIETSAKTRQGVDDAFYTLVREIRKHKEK
T2 sequence (P01116 1-169 isoform P01116-2 G12R): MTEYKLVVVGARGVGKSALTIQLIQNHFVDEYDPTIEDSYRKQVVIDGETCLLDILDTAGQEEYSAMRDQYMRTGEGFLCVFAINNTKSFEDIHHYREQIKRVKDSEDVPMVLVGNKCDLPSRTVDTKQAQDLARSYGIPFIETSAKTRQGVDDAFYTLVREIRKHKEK
T1 sequence (P01116 1-169 isoform P01116-2 G12D): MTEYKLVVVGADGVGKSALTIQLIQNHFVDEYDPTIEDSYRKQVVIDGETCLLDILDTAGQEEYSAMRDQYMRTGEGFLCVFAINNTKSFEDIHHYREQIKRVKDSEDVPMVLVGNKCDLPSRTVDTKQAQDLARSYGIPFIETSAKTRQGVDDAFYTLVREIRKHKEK
T3 sequence (P01116 1-169 isoform P01116-2 G12V): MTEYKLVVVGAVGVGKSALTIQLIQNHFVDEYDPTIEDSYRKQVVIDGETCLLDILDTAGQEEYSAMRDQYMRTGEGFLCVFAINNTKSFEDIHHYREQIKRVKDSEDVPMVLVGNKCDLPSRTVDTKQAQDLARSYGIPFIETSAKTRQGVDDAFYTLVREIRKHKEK

IC50 ([1]; KRAS G12D-GppNHp/RAF1 RBD HTRF) [µM]	IC50 ([2]; KRAS G12R-GppNHp/RAF1 RBD HTRF) [µM]	IC50 ([3]; KRAS G12V-GppNHp/RAF1 RBD HTRF) [µM]	IC50 ([4]; KRAS WT-GppNHp/RAF1 RBD HTRF) [µM]	IC50 (GP2d cells (KRAS G12D); GP2d) [µM]	IC50 (SW620 cells (KRAS G12V); [5]) [µM]	SMILES	further results
0.1 to 1	1 to 10	1 to 10	0.1 to 1	< 0.1	< 0.1	N#Cc1c(N)sc2c(F)ccc(-c3c(C(F)(F)F)cc4c(N5[C@@H]6CO[C@H]7C6OC[C@H]75)nc(OC[C@@]56CCCN5C[C@H](F)C6)nc4c3F)c12 [Compound 382]	
0.1 to 1	0.1 to 1	0.1 to 1	0.1 to 1	< 0.1	< 0.1	C[C@H]1[C@H](O)CCCN1c1nc(OC[C@@]23CCCN2C[C@H](F)C3)nc2c(F)c(-c3ccc(F)c4sc(N)c(C#N)c34)c(C(F)(F)F)cc12 [Compound 473]	
1 to 10	1 to 10	1 to 10	1 to 10			N#Cc1c(N)sc2c(F)ccc(-c3c(C(F)(F)F)cc4c(N5CCN6C(=O)OCC6C5)nc(OCC56CCCN5CC(F)C6)nc4c3F)c12 (stereo not drawn) [Compound 431]	IC50 (GP2d cells (KRAS G12D)): < 0.1 µM; IC50 (SW620 cells (KRAS G12V); SW620 (KRAS G12V) cells): < 0.1 µM

Continued, compound first:

SMILES	IC50 ([1]; KRAS G12D-GppNHp/RAF1 RBD HTRF) [µM]	IC50 ([2]; KRAS G12R-GppNHp/RAF1 RBD HTRF) [µM]	IC50 ([3]; KRAS G12V-GppNHp/RAF1 RBD HTRF) [µM]	IC50 ([4]; KRAS WT-GppNHp/RAF1 RBD HTRF) [µM]	IC50 (GP2d cells (KRAS G12D); GP2d) [µM]	IC50 (SW620 cells (KRAS G12V); [5]) [µM]	further results
CCN(c1nc(OC[C@@]23CCCN2C[C@H](F)C3)nc2c(F)c(-c3ccc(F)c4sc(N)c(C#N)c34)c(C(F)(F)F)cc12)[C@H]1CCN(C(=O)C2CC(F)(F)C2)C1 (atropisomer, axis not shown) [Compound 550]	< 0.1	< 0.1	0.1 to 1	< 0.1	< 0.1	< 0.1	
Cc1nnn2c1CN(c1nc(OC[C@@]34CCCN3C[C@H](F)C4)nc3c(F)c(-c4ccc(F)c5sc(N)c(C#N)c45)c(C(F)(F)F)cc13)[C@@H](C)C2 (atropisomer, axis not shown) [Compound 624]							IC50 [1, 6]: 0.1 to 1 µM; IC50 [2, 7]: 0.1 to 1 µM; IC50 [3, 8]: 0.1 to 1 µM; IC50 [4, 9]: 0.1 to 1 µM; IC50 (GP2d cells (KRAS G12D); GP2d, class symbols): < 0.1 µM; IC50 (SW620 cells (KRAS G12V); [10]): < 0.1 µM
N#Cc1c(N)sc2c(F)ccc(-c3c(C(F)(F)F)cc4c(N5CCn6nc(C7CC7)cc6C5)nc(OC[C@@]56CCCN5C[C@H](F)C6)nc4c3F)c12 [Compound 483]	1 to 10	> 10	> 10	> 10	< 0.1	< 0.1	
N#Cc1c(N)sc2c(F)ccc(-c3c(C(F)(F)F)cc4c(N5CC6C(=O)NC(=O)C6C5)nc(OC[C@@]56CCCN5C[C@H](F)C6)nc4c3F)c12 (stereo partly drawn) [Compound 308]	0.1 to 1	1 to 10	1 to 10	0.1 to 1	0.1 to 1	> 1	
CC(C)C(=O)N1C[C@@H](N(C)c2nc(OC[C@@]34CCCN3C[C@H](F)C4)nc3c(F)c(-c4ccc(F)c5sc(N)c(C#N)c45)c(C(F)(F)F)cc23)C[C@@H]1C [Compound 436]	1 to 10	0.1 to 1	1 to 10	1 to 10	< 0.1	< 0.1	
CC(=O)N1CC[C@@H](N(C)c2nc(OC[C@@]34CCCN3C[C@H](F)C4)nc3c(F)c(-c4ccc(F)c5sc(N)c(C#N)c45)c(C(F)(F)F)cc23)C1 [Compound 112]					< 0.1	< 0.1	IC50 ([1]; KRAS G12D, GppNHp-loaded, Table 11): 0.1 to 1 µM; IC50 ([2]; KRAS G12R, GppNHp-loaded, Table 11): 0.1 to 1 µM; IC50 ([3]; KRAS G12V, GppNHp-loaded, Table 11): 0.1 to 1 µM; IC50 ([4]; KRAS WT, GppNHp-loaded, Table 11): 0.1 to 1 µM
CCN(c1nc(OC[C@@]23CCCN2C[C@H](F)C3)nc2c(F)c(-c3ccc(F)c4sc(N)c(C#N)c34)c(C(F)(F)F)cc12)[C@H]1C[C@H](COC)N(C(=O)N(C)C)C1 (atropisomer, axis not shown) [Compound 717]							IC50 [1, 6]: 0.1 to 1 µM; IC50 [2, 7]: 0.1 to 1 µM; IC50 [3, 8]: 0.1 to 1 µM; IC50 [4, 9]: 0.1 to 1 µM; IC50 (GP2d cells (KRAS G12D); GP2d, class symbols): < 0.1 µM; IC50 (SW620 cells (KRAS G12V); [10]): < 0.1 µM

Reference: patent US20260042764A1, “COMPOSITIONS AND METHODS FOR INHIBITION OF KRAS” (TheRas, Inc., priority 2022, published 2026)
